Drawing on patent US11820773B2, “Tricyclic compounds” (ALIGOS THERAPEUTICS, INC., priority 2020, dated 2023), this text covers EC50 for 16 compounds.

As a reminder, the EC50 is the concentration needed to bring the measured effect to its halfway point. Higher therefore signals weaker potency.

The structures appear in SMILES notation. Where a name gives a salt, the structure may show the parent alone.

The test system of the first assay is HBV. Kind of assay: HBV-DNA antiviral assay using HepG2.117 cells (intracellular HBV DNA by qPCR). It is filed as cell-based, genotype D HBV. To be noted: HBV DNA inhibition, 3 days incubation, 2% DMSO. As for the experimental part: The following assay procedure describes the HBV antiviral assay, using HepG2.117 cells, which carry a stably integrated genotype D HBV genome under the control of a Tet-off promoter, and intracellular HBV DNA quantification as endpoint. Cell viability is assessed in parallel by measuring the intracellular ATP content using CellTiter-Glo 2.0 (Promega).
On day 0, HepG2.117 cells (which are maintained in routine cell culture with doxycycline present in the medium at a final concentration of 1 μg/mL) were seeded in 96-well plates (white with clear bottom) at a density of 2.0×10^4 cells/well (0.1 mL/well) in medium without doxycycline to induce pgRNA transcription and subsequent formation of HBV particles. The cells were incubated at 37° C. and 5% CO2.
On day 1, medium was removed from each well, the test articles were diluted in culture medium without doxcycyline and 100 μL was added to cell culture wells (9 concentrations, 4-fold dilution). For each plate, 6 untreated (merely DMSO) wells were included. The final concentration of DMSO in the culture medium was 2%. Each plate was prepared in duplicate (one for HBV DNA extraction, one for CellTiter-Glo 2.0 measurement). The cells were incubated at 37° C. and 5% CO2 for 3 days.
On day 4, cell viability was assessed using CellTiter-Glo 2.0 and cell lysates were prepared for HBV DNA extraction and subsequent quantification by qPCR.
HBV DNA Quantification by qPCR
Medium was removed from each well and 100 μL of 0.33% NP-40 in H2O was added to each well. Plates were sealed, incubated at 4° C. for 5 mins, vortexed extensively and centrifuged briefly. Next, 35 μL of lysate was added to 65 μL QuickExtract DNA Extraction Solution (Epicentre) in a PCR plate for each well. PCR plate was incubated at 65° C. for 6 mins, 98° C. for 2 mins and finally cooled to 4° C. HBV DNA was then quantified by qPCR with HBV-specific primers and probes as specified in Table 1 using the Bio-Rad SSOAdvanced Universal Probes Supermix on a CFX96 machine (Bio-Rad). The PCR cycle program consisted of 95° C. for 3 mins, followed by 40 cycles at 95° C. for 10 sec and 60° C. for 30 sec.
A DNA standard was prepared by dilution of an IDT gBlock corresponding to the amplicon with concentrations ranging from 10^2 to 10^8 copies/input (i.e. per 4 μL) and used to generate a standard curve by plotting Cq values vs. HBV DNA standard concentration. The quantity of HBV DNA in each sample was determined by interpolating from the standard curve.
Cell viability was calculated as follows: % Cell viability=(luminescence value of test sample)/(average luminescence value of 2% DMSO control)×100%. HBV DNA inhibition was calculated as follows: 100−(HBV DNA copy number of test sample)/(average HBV DNA copy number of 2% DMSO control)×100%. No normalization to entecavir was required due to the excellent dynamic window of this assay. The CC50, EC50 and EC90 values were determined by dose-response curves fitted by GraphPad Prism using “log (agonist) vs. response—Variable slope”.
For orientation: Real-time PCR tracks product formation cycle by cycle.
The compound `CNC(=O)c1ccc(-n2c(=O)c3c(n4ncc(CC5CC5)c24)CN(C(=O)c2ccc(Br)c(C(F)(F)F)c2)C(C)C3)cc1` (racemic) [Compound 21a, N-methyl-4-[rac-(11R)-12-[4-bromo-3-(trifluoromethyl)benzoyl]-5-(cyclopropylmethyl)-11-methyl-8-oxo-2,3,7,12-tetrazatricyclo[7.4.0.0^2,6]trideca-1(9),3,5-trien-7-yl]benzamide] displayed an EC50 of less than 50 nM.

`CNC(=O)c1ccc(-n2c(=O)c3c(n4ncc(CC5CC5)c24)CN(C(=O)c2ccc(Br)c(C(F)(F)F)c2)C(C)C3)cc1` (racemic) [Compound 21b, N-methyl-4-[rac-(11S)-12-[4-bromo-3-(trifluoromethyl)benzoyl]-5-(cyclopropylmethyl)-11-methyl-8-oxo-2,3,7,12-tetrazatricyclo[7.4.0.0^2,6]trideca-1(9),3,5-trien-7-yl]benzamide] yielded an EC50 of 50 to 500 nM.

The assay is the same for the next values; noted with them: Hepatitis B virus, 72 h, HBV DNA inhibition, 3 days incubation, 2% DMSO.
`CC(C)[C@@H](N)C(=O)OCN(C)C(=O)c1ccc(-n2c(=O)c3c(n4ncc(CC5CC5)c24)CN(C(=O)c2ccc(Br)c(C(F)(F)F)c2)[C@@H](C)C3)cc1` (racemic) [Compound 96, [[4-[(11SR)-12-[4-bromo-3-(trifluoromethyl)benzoyl]-5-(cyclopropylmethyl)-11-methyl-8-oxo-2,3,7,12-tetrazatricyclo[7.4.0.0^2,6]trideca-1(9),3,5-trien-7-yl]benzoyl]-methyl-amino]methyl (2R)-2-amino-3-methyl-butanoate; hydrochloride] returned an EC50 of 500 to 5000 nM.

The compound `C[C@H]1Cc2c(n3ncc(CC4CC4)c3n(-c3ccc(C(=O)N(C)COC(=O)CN)cc3)c2=O)CN1C(=O)c1ccc(Br)c(C(F)(F)F)c1` (racemic) [Compound 97, [methyl-[4-[rac-(11S)-12-[4-bromo-3-(trifluoromethyl)benzoyl]-5-(cyclopropylmethyl)-11-methyl-8-oxo-2,3,7,12-tetrazatricyclo[7.4.0.0^2,6]trideca-1(9),3,5-trien-7-yl]benzoyl]amino]methyl 2-aminoacetate] came in with an EC50 of more than 5000 nM.

For `COP(=O)(OC)OCN(C)C(=O)c1ccc(-n2c(=O)c3c(n4ncc(CC5CC5)c24)CN(C(=O)c2ccc(Br)c(C(F)(F)F)c2)[C@@H](C)C3)cc1` (racemic) [Compound 103, Dimethyl [methyl-[4-[rac-(11S)-12-[4-bromo-3-(trifluoromethyl)benzoyl]-5-(cyclopropylmethyl)-11-methyl-8-oxo-2,3,7,12-tetrazatricyclo[7.4.0.0^2,6]trideca-1(9),3,5-trien-7-yl]benzoyl]amino]methyl Phosphate], the EC50 was more than 5000 nM.

Compound `COP(=O)(O)OCN(C)C(=O)c1ccc(-n2c(=O)c3c(n4ncc(CC5CC5)c24)CN(C(=O)c2ccc(Br)c(C(F)(F)F)c2)[C@@H](C)C3)cc1` (racemic) [Compound 107, Methyl [methyl-[4-[rac-(11S)-12-[4-bromo-3-(trifluoromethyl)benzoyl]-5-(cyclopropylmethyl)-11-methyl-8-oxo-2,3,7,12-tetrazatricyclo[7.4.0.0^2,6]trideca-1(9),3,5-trien-7-yl]benzoyl]amino]methyl Hydrogen Phosphate] registered an EC50 of more than 5000 nM.

The compound `CNC(=O)c1ccc(-n2c(=O)c3c(n4ncc(CC5CC5)c24)CN(C(=O)c2ccc(Br)c(Cl)c2)[C@H](C)C3)cc1` (stereo in doubt) [Compound 22a, N-methyl-4-[rac-(11R)-12-[4-bromo-3-chlorobenzoyl]-5-(cyclopropylmethyl)-11-methyl-8-oxo-2,3,7,12-tetrazatricyclo[7.4.0.0^2,6]trideca-1(9),3,5-trien-7-yl]benzamide] had an EC50 of less than 50 nM.

`CNC(=O)c1ccc(-n2c(=O)c3c(n4ncc(CC5CC5)c24)CN(C(=O)c2ccc(Br)c(Cl)c2)[C@@H](C)C3)cc1` (stereo in doubt) [Compound 22b, N-methyl-4-[rac-(11S)-12-[4-bromo-3-chlorobenzoyl]-5-(cyclopropylmethyl)-11-methyl-8-oxo-2,3,7,12-tetrazatricyclo[7.4.0.0^2,6]trideca-1(9),3,5-trien-7-yl]benzamide] yielded an EC50 of less than 50 nM.

`CNC(=O)c1ccc(-n2c(=O)c3c(n4ncc(CC5CCC5)c24)CN(C(=O)c2ccc(Br)c(C(F)(F)F)c2)[C@H](C)C3)cc1` (stereo in doubt) [Compound 37a, N-methyl-4-[rac-(11R)-12-[4-bromo-3-(trifluoromethyl)benzoyl]-5-(cyclobutylmethyl)-11-methyl-8-oxo-2,3,7,12-tetrazatricyclo[7.4.0.0^2,6]trideca-1(9),3,5-trien-7-yl]benzamide] yielded an EC50 of less than 50 nM.

Regarding `CNC(=O)c1ccc(-n2c(=O)c3c(n4ncc(CC5CCC5)c24)CN(C(=O)c2ccc(Br)c(C(F)(F)F)c2)[C@@H](C)C3)cc1` (stereo in doubt) [Compound 37b, N-methyl-4-[rac-(11S)-12-[4-bromo-3-(trifluoromethyl)benzoyl]-5-(cyclobutylmethyl)-11-methyl-8-oxo-2,3,7,12-tetrazatricyclo[7.4.0.0^2,6]trideca-1(9),3,5-trien-7-yl]benzamide], the EC50 lay in the range of 50 to 500 nM.

Compound `CNC(=O)c1ccc(-n2c(=O)c3c(n4ncc(Cc5ccccc5)c24)CN(C(=O)c2ccc(Br)c(C(F)(F)F)c2)[C@H](C)C3)cc1` (stereo in doubt) [Compound 38a, N-methyl-4-[rac-(11R)-5-benzyl-12-[4-bromo-3-(trifluoromethyl)benzoyl]-11-methyl-8-oxo-2,3,7,12-tetrazatricyclo[7.4.0.0^2,6]trideca-1(9),3,5-trien-7-yl]benzamide] yielded an EC50 of less than 50 nM.

In turn, `CNC(=O)c1ccc(-n2c(=O)c3c(n4ncc(Cc5ccccc5)c24)CN(C(=O)c2ccc(Br)c(C(F)(F)F)c2)[C@@H](C)C3)cc1` (stereo in doubt) [Compound 38b, N-methyl-4-[rac-(11S)-5-benzyl-12-[4-bromo-3-(trifluoromethyl)benzoyl]-11-methyl-8-oxo-2,3,7,12-tetrazatricyclo[7.4.0.0^2,6]trideca-1(9),3,5-trien-7-yl]benzamide] showed an EC50 of less than 50 nM.

On to `C[C@@H]1Cc2c(n3ncc(Cc4ccccc4)c3n(-c3ccc(-c4nncn4C)cc3)c2=O)CN1C(=O)c1ccc(Br)c(C(F)(F)F)c1` (stereo in doubt) [Compound 39a, rac-(11R)-5-benzyl-12-[4-bromo-3-(trifluoromethyl)benzoyl]-11-methyl-7-[4-(4-methyl-1,2,4-triazol-3-yl)phenyl]-2,3,7,12-tetrazatricyclo[7.4.0.0^2,6]trideca-1(9),3,5-trien-8-one], for which the EC50 was less than 50 nM.

On to `C[C@H]1Cc2c(n3ncc(Cc4ccccc4)c3n(-c3ccc(-c4nncn4C)cc3)c2=O)CN1C(=O)c1ccc(Br)c(C(F)(F)F)c1` (stereo in doubt) [Compound 39b, rac-(11S)-5-benzyl-12-[4-bromo-3-(trifluoromethyl)benzoyl]-11-methyl-7-[4-(4-methyl-1,2,4-triazol-3-yl)phenyl]-2,3,7,12-tetrazatricyclo[7.4.0.0^2,6]trideca-1(9),3,5-trien-8-one], for which the EC50 lay within 50 to 500 nM.

`C[C@@H]1Cc2c(n3ncc(CC4CC4)c3n(-c3ccc(-c4nncn4C)cc3)c2=O)CN1C(=O)c1ccc(Br)c(C(F)(F)F)c1` (stereo in doubt) [Compound 40a, rac-(11R)-12-[4-bromo-3-(trifluoromethyl)benzoyl]-5-(cyclopropylmethyl)-11-methyl-7-[4-(4-methyl-1,2,4-triazol-3-yl)phenyl]-2,3,7,12-tetrazatricyclo[7.4.0.0^2,6]trideca-1(9),3,5-trien-8-one] came in with a concentration for a half-maximal effect (EC50) of less than 50 nM.

Take `C[C@H]1Cc2c(n3ncc(CC4CC4)c3n(-c3ccc(-c4nncn4C)cc3)c2=O)CN1C(=O)c1ccc(Br)c(C(F)(F)F)c1` (stereo in doubt) [Compound 40b, rac-(11S)-12-[4-bromo-3-(trifluoromethyl)benzoyl]-5-(cyclopropylmethyl)-11-methyl-7-[4-(4-methyl-1,2,4-triazol-3-yl)phenyl]-2,3,7,12-tetrazatricyclo[7.4.0.0^2,6]trideca-1(9),3,5-trien-8-one]: the EC50 lay in the range of 50 to 500 nM.
